# Source: patent US4820834A, “Benzodiazepine analogs” (priority 1987, dated 1989)
# Where two headings read alike, the source gives them in different places.
# Columns and labels:
# CCK receptor (pancreas) = target: T1, CCK receptor (pancreas) (Rattus norvegicus, UniProt P30551); assay: CCK Receptor Binding (Pancreas): inhibition of ^125 I-CCK-33 binding; set-up: species or system Male Sprague-Dawley rats; details: rat pancreas membranes, ^125 I-CCK-33, 37° C., 30 minutes
# T1 construct: The whole pancreas was dissected free of fat tissue and was homogenized; from tissue; host or cells: rat pancreas membranes (Sprague-Dawley)
# T1 sequence (P30551 1-444): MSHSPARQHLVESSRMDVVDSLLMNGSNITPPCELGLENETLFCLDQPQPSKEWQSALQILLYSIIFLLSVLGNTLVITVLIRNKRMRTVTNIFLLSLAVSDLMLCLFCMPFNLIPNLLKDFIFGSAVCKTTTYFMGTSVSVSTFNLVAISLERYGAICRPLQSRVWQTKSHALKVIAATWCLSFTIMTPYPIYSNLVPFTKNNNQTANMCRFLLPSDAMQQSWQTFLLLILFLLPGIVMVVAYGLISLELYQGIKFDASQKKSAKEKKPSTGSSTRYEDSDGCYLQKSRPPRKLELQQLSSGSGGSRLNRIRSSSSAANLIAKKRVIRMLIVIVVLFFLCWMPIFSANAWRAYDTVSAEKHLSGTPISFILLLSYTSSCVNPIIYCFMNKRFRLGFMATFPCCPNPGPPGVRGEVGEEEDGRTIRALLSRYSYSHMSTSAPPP
# Procedure: 1. CCK Receptor Binding (Pancreas)
# CCK-33 was radiolabeled with ^125 I-Bolton Hunter reagent (2000 Ci/mmole) as described by Sankara et al. (J. Biol. Chem. 254: 9349-9351, 1979). Receptor binding was performed according to Innis and Snyder (Proc. Natl. Acad. Sci. 77: 6917-6921, 1980) with the minor modification of adding the additional protease inhibitors, phenylmethane sulfonyl fluoride and o-phenanthroline.
# Male Sprague-Dawley rats (200-350 g) were sacrificed by decapitation. The whole pancreas was dissected free of fat tissue and was homogenized in 20 volumes of ice-cold 50 mM, Tris HCl (pH 7.7 at 25° C.) with a Brinkmann Polytron PT 10. The homogenates were centrifuged at 48,000 g for 10 min. Pellets were resuspended in Tris Buffer, centrifuged as above and resuspended in 200 volumes of binding assay buffer (50 mM Tris HCl, pH 7.7 at 25° C., 5 mM dithiothrietol, 0.1 mM bacitracin, 1.2 mM phenylmethane sulfonyl fluoride and 0.5 mM o-phenanthroline). […] All assays were run in duplicate or triplicate. The reaction mixtures were incubated at 37° C. for 30 minutes and centrifuged in a Beckman Microfuge (4 minutes) immediately after adding 1 ml of ice-cold incubation buffer. The supernatant was aspirated and discarded, pellets were counted with a Beckman gamma 5000. For Scatchard analysis (Ann. N.Y. Acad. Sci. 51: 660, 1949), ^125 I-CCK-33 was progressively diluted with increasing concentrations of CCK-33.
# [1] = target: T2, Gastrin receptor (gastric glands) (Cavia porcellus, UniProt H0VZC5); assay: Gastrin Receptor Binding in Guinea Pig Gastric Glands; set-up: species or system guinea pig (male Hartley); details: 25° C., 30 minutes
# T2 construct: The washed guinea pig gastric glands prepared as above were resuspended; from tissue; host or cells: guinea pig gastric mucosal glands (male Hartley)
# T2 sequence (H0VZC5 1-426): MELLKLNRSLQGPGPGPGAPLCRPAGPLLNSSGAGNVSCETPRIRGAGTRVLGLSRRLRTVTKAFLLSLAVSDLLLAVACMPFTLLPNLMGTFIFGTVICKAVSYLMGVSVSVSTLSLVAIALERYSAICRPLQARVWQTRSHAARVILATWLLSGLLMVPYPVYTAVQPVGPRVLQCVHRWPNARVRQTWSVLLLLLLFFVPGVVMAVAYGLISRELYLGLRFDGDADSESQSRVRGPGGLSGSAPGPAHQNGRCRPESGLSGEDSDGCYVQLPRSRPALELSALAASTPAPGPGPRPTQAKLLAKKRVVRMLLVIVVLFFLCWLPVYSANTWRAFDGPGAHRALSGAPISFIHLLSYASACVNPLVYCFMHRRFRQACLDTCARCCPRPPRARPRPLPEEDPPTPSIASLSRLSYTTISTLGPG
# [2] = target: T3, CCK receptor (brain, cerebral cortex) (Cavia porcellus, UniProt H0VZC5); assay: biochemical; format: binding, Male Hartley guinea pigs; details: guinea pig cerebral cortex, ^125 I-CCK-33, 25° C., 2 hours
# T3 construct: Cerebral cortex was dissected and used as a receptor source; from tissue; host or cells: guinea pig cerebral cortex membranes (male Hartley)
# T3 sequence (H0VZC5 1-426): T2 sequence (H0VZC5 1-426)
# Method in brief: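 Guinea pig cerebral cortex homogenate as receptor source, with radiolabeled CCK-33 in HEPES buffer containing MgCl2, bacitracin, EGTA and 0.4% BSA. Incubation 2 h at 25°C; bound ligand pelleted by centrifugation and gamma-counted.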
# [3] = ^125 I-gastrin, read-out: IC50 ^125 I-Gastrin Gastric Glands
# [4] = read-out: IC50 ^125 I-CCK Brain
# [5] = IC50 ^125 I-Gastrin Gastric Glands
Structure (SMILES),IC50 (CCK receptor (pancreas); IC50 ^125 I-CCK Pancreas) [µM],"IC50 [1, 3] [µM]",further results
"O=C1Nc2ccccc2C(c2ccccc2F)=NC1c1ccsc1 (racemic) [Example 20, 1,3-Dihydro-5-(2-fluorophenyl)-3(RS)-(3-thienyl)-2H-1,4-benzodiazepin-2-one]",> 100,,
"O=C1Nc2ccccc2C(c2ccccc2F)=NC1Cc1c[nH]c2ccc(F)cc12 (racemic) [Example 59, 1,3-Dihydro-3(RS)-[3'-(5'-fluoroindolyl)methyl]-5-o-fluorophenyl-2H-1,4-benzpdiazepin-2-one]",1.4,,
"CCN(CC)C(=O)C(C)N1C(=O)C(NC(=O)Nc2ccc(Cl)cc2)N=C(c2ccccc2)c2ccccc21 (single isomer, unassigned) [Example 249, 3-((((4-Chlorophenyl)amino)carbonyl)amino)-N,N,-diethyl-2,3-dihydro-alpha-methyl-2-oxo-5-phenyl-1H-1,4-benzodiazepine-1-acetamide]",,0.012,"IC50 [2, 4]: 0.022 µM"
O=C1Nc2ccccc2C(c2ccccc2F)=N[C@@H]1Cc1c[nH]c2ccccc12 [2 & 3],0.4,,
CN1C(=O)[C@@H](Cc2cn(C)c3ccccc23)N=C(c2ccccc2F)c2ccccc21 [4a & 44],0.36,,
CN1C(=O)/C(=C\c2ccsc2)N=C(c2ccccc2)c2ccccc21 [95 E],25,,
CN1C(=O)/C(=C/c2ccsc2)N=C(c2ccccc2)c2ccccc21 [95 Z],100,,
"Fc1ccccc1C1=N[C@H](Cc2c[nH]c3ccccc23)CNc2ccccc21 [Example 12, 1,3-Dihydro-5-(2-fluorophenyl)-3(R)-(3'-indolyl)methyl-2H-1,4-benzodiazepin]",4,,
"O=C1Nc2ccc(Cl)cc2C(c2ccccc2)=N[C@@H]1Cc1ccccc1 [Example 13, 7-Chloro-1,3-dihydro-3(R)-benzyl-5-phenyl-2H-1,4-benzodiazepin-2-one]",80,,
"CC1=N[C@H](Cc2c[nH]c3ccccc23)C(=O)Nc2ccccc21 [Example 29, 1,3-Dihydro-3(R)-(3'-indolyl)methyl-5-methyl-2H-1,4-benzodiazepin-2-one]",,,IC50 (CCK receptor (pancreas); read-out: IC50 ^125 I-CCK Pancreas): 48 µM
"O=C1Nc2ccccc2C(c2ccccc2F)=N[C@H]1Cc1c[nH]c2ccccc12 [Example 32, 1,3-Dihydro-5-(2-fluorophenyl)-3(S)-(3'-indolyl) methyl-2H-1,4-benzodiazepin-2-one]",10.6,,
"O=C1[C@@H](Cc2c[nH]c3ccccc23)N=C(c2ccccc2F)c2ccccc2N1CC1CC1 [Example 37, 1-Cyclopropylmethyl-1,3-dihydro-5-(2-fluorophenyl)-3(R)-(3'-indolyl)methyl-2H-1,4-benzodiazepin-2-one]",2.2,,
"CCCCCN1C(=O)[C@@H](Cc2c[nH]c3ccccc23)N=C(c2ccccc2F)c2ccccc21 [Example 38, 1,3-Dihydro-5-(2-fluorophenyl)-3(R)-(3'-indolyl) methyl-1-pentyl-2H-1,4-benzodiazepin-2-one]",100,,
"O=C1[C@@H](Cc2c[nH]c3ccccc23)N=C(c2ccccc2F)c2ccccc2N1CC(F)(F)F [Example 40, 1,3-Dihydro-5-(2-fluorophenyl)-3(R)-(3'-indolyl)methyl-1-(2,2,2-trifluoroethyl)-2H-1,4-benzodiazepin-2-one]",3.6,,
"CN(C)CCN1C(=O)[C@@H](Cc2c[nH]c3ccccc23)N=C(c2ccccc2F)c2ccccc21 [Example 41, 1,3-Dihydro-1-(2-dimethylaminoethyl)-5-(2-fluorophenyl) 3(R)-(3'-indolyl)methyl-2H-1,4-benzodiazepin-2-one]",100,,
"CN1C(=O)[C@@H](NC(=O)[C@@H](N)Cc2ccccc2)N=C(c2ccccc2)c2ccccc21 [Example 84a, 3(S)-(2(S)-amino-3-phenylpropanoylamino)-1,3-dihydro-1-methyl-5-phenyl-2H-1,4-benzodiazepin-2-one]",,> 40,IC50 ([2]; IC50 ^125 I-CCK Brain): > 40 µM
"CN1C(=O)[C@H](NC(=O)[C@@H](N)Cc2ccccc2)N=C(c2ccccc2)c2ccccc21 [Example 84b, 3(R)-(2(S)-amino-3-phenylpropanoylamino)-1,3-dihydro-1-methyl-5-phenyl-2H-1,4-benzodiazepin-2-one]",,55,IC50 ([2]; IC50 ^125 I-CCK Brain): > 100 µM
"CN1C(=O)[C@H](N)N=C(c2ccccc2)c2ccccc21 [Example 85b, 3(R)-(+)-3-amino-1,3-dihydro-1-methyl-5-phenyl-2H-1,4-benzodiazepin-2-one]",,,"IC50 [1, 5]: > 100 µM; IC50 ([2]; IC50 ^125 I-CCK Brain): > 100 µM"
"CN1C(=O)[C@@H](NC(=O)c2ccccc2Br)N=C(c2ccccc2F)c2ccccc21 [Example 161, 3(S)-(-)-3-(2-Bromobenzoylamino)-1,3-dihydro-5-(2-fluorophenyl)-1-methyl-2H-1,4-benzodiazepin-2-one]",,19,IC50 ([2]; IC50 ^125 I-CCK Brain): 70 µM
"CN1C(=O)[C@@H](NC(=O)c2cccc(I)c2)N=C(c2ccccc2F)c2ccccc21 [Example 167, 3(S)-(+)-1,3-Dihydro-5-(2-fluorophenyl)-3-(3-iodobenzoylamino)-1-methyl-2H-1,4-benzodiazepin-2-one]",,0.39,"IC50 [2, 4]: 1.7 µM"
"CN1C(=O)[C@H](NC(=O)c2ccccc2Br)N=C(c2ccccc2F)c2ccccc21 [Example 171, 3(R)-(+)-3-(2-Bromobenzoylamino)-1,3-dihydro-5-(2-fluorophenyl)-1-methyl-2H-1,4-benzodiazepin-2-one]",,5.8,IC50 ([2]; IC50 ^125 I-CCK Brain): 5.6 µM
"CCOC(=O)CN1C(=O)C(NC(=O)c2ccccc2Cl)N=C(c2ccccc2F)c2ccccc21 (centres unmarked) [Example 188, 3-(2'-Chlorobenzoylamino)-1-ethoxycarbonylmethyl-5-(2'-fluorophenyl)-2H-1,4-benzodiazepine-2-one]",,,"IC50 [1, 5]: 1.3 µM; IC50 ([2]; IC50 ^125 I-CCK Brain): 3.2 µM"
"CN1C(=O)[C@@H](NC(=O)C=Cc2ccccc2)N=C(c2ccccc2)c2ccccc21 [Example 192, (S)-N-(2,3-Dihydro-1-methyl-2-oxo-5-phenyl-1H-1,4-benzodiazeoin-3-yl)-3-phenyl-2-propenamide]",,0.18,"IC50 [2, 4]: 0.64 µM"
"CN1C(=O)[C@H](NC(=O)C2CCCCC2)N=C(c2ccccc2)c2ccccc21 [Example 198, (R)-N-(2,3-Dihydro-1-methyl-2-oxo-5-phenyl-1H-1,4-benzodiazepin-3-yl)-cyclohexanecarboxamide]",,1.5,"IC50 [2, 4]: 18 µM"
"CN1C(=O)[C@@H](NC(=O)[C@@H](Cc2ccccc2)NC(=O)OC(C)(C)C)N=C(c2ccccc2F)c2ccccc21 [Example 232, (S-(R*,S*))-(2-((5-(2-Fluorophenyl)-2,3-dihydro-1-methyl-2-oxo-1H-1,4-benzodiazepin-3-yl)amino)-2-oxo-1-(phenylmethyl)ethyl)-carbamic acid 1,1-dimethylethyl ester]",,1.2,"IC50 [2, 4]: 1 µM"
"CN1C(=O)[C@@H](NC(=O)c2ccccc2I)N=C(c2ccccc2)c2ccccc21 [Example 283, (S)-N-(2,3-Dihydro-1-methyl-2-oxo-5-phenyl-1H-1,4-benzodiazepin-3-yl)-2-iodobenzamide]",,66,"IC50 [2, 4]: 71 µM"
